Values belong to the compound of their own block, whether it stands above or below them.
How the values were obtained:
[1] = biological target: T1, Serine/threonine-protein kinase TAO3 (Homo sapiens) (UniProt Q9H2K8); test: Selectivity interaction (Upstate Kinase Profiler service (Millipore)) EUB0000056c TAOK3; details: at 1 µM
T1 sequence (whole entry): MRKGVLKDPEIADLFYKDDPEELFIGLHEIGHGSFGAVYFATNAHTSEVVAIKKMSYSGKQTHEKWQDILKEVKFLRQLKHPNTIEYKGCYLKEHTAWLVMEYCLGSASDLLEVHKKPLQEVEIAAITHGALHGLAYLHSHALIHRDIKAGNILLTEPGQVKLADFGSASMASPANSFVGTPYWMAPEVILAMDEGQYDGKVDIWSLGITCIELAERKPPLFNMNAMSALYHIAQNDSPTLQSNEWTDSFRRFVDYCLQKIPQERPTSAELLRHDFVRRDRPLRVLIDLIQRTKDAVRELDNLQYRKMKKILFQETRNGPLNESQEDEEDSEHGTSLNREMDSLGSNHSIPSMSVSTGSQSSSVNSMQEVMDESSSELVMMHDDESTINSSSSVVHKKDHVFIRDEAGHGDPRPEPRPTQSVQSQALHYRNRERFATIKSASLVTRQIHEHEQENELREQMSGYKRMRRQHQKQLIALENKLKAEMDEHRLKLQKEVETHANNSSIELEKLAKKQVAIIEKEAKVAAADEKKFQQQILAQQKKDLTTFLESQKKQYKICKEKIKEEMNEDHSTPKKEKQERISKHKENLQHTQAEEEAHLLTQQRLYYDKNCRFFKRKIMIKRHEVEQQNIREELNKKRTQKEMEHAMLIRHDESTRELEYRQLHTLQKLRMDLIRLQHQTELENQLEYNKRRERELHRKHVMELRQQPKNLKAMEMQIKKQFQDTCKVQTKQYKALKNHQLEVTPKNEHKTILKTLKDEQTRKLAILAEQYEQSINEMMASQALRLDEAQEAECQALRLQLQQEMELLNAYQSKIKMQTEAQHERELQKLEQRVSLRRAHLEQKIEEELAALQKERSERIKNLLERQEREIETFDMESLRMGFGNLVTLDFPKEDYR

[2] = biological target: Endothelin-1 receptor (Homo sapiens) (UniProt P25101); test: Selectivity interaction (Panel of non-epigenetic targets (kinases, GPCRs, ion channels, and transporters, Eurofins) ) EUB0000271b EDNRA; details: at 1 µM
[3] = biological target: T2, Mitogen-activated protein kinase kinase kinase 7 (Homo sapiens) (UniProt O43318); test: Selectivity interaction (KinomeScan (DiscoverX)) EUB0001049a MAP3K7; details: at 1 µM
T2 sequence (whole entry): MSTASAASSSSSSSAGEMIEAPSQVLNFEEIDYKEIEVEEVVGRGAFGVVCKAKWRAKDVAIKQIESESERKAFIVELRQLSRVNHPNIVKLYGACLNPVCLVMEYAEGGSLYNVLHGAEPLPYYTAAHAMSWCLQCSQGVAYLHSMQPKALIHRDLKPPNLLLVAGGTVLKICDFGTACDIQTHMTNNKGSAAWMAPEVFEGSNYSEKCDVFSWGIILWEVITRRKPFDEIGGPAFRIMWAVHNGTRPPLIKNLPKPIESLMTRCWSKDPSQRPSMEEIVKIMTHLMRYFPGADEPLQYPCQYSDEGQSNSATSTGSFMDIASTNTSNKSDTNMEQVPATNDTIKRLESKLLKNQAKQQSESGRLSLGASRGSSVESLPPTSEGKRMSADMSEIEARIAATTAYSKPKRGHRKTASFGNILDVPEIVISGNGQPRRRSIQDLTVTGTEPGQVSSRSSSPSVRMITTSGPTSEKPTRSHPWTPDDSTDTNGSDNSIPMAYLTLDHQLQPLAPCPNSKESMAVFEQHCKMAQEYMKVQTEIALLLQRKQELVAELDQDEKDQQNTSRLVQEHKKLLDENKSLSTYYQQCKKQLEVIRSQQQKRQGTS

[4] = biological target: T3, Serine/threonine-protein kinase Chk1 (Homo sapiens) (UniProt O14757); test: Selectivity interaction (KinomeScan (DiscoverX)) EUB0000045b CHEK1
T3 sequence (whole entry): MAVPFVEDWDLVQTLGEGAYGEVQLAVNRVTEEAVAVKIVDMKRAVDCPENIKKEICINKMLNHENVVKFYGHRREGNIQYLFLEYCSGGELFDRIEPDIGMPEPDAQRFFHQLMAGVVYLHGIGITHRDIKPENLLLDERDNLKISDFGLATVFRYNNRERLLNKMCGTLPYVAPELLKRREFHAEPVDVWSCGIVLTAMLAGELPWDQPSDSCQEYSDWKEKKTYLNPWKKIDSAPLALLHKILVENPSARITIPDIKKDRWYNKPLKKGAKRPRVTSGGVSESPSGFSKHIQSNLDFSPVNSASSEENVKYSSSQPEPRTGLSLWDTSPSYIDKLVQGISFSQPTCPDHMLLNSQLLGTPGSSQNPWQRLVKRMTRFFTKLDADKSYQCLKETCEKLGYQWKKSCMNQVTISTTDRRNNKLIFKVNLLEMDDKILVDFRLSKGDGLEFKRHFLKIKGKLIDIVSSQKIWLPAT

[5] = biological target: Activated CDC42 kinase 1 (Homo sapiens, UniProt Q07912); test: Selectivity interaction (Kinase panel (Carna Biosciences)) EUB0001542aTs TNK2; details: at 1 µM
[6] = biological target: T4, Serine/threonine-protein kinase BRSK1 (Homo sapiens) (UniProt Q8TDC3); details: at 10 µM
T4 sequence (whole entry): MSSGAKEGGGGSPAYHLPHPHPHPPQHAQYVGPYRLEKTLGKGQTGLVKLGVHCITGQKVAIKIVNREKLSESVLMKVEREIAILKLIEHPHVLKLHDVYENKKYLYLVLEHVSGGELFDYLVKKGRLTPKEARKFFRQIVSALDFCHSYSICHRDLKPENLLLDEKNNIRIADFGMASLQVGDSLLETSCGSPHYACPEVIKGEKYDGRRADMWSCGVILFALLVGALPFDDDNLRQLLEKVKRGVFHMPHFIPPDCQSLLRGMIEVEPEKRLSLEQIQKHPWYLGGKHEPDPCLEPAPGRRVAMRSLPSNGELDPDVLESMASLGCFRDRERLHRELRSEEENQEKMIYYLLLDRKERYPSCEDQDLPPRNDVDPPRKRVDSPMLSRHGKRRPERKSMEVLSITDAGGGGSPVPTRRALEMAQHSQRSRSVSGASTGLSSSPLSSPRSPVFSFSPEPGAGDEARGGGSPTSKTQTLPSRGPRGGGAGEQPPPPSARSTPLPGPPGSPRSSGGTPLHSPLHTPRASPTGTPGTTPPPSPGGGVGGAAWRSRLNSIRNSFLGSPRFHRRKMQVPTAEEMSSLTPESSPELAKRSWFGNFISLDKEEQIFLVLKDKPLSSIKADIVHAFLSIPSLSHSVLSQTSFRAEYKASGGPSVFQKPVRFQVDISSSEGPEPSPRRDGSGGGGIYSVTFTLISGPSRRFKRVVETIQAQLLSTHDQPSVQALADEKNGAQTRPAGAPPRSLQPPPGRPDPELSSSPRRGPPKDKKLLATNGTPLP

Sequence of Endothelin-1 receptor (Homo sapiens) (P25101 whole entry): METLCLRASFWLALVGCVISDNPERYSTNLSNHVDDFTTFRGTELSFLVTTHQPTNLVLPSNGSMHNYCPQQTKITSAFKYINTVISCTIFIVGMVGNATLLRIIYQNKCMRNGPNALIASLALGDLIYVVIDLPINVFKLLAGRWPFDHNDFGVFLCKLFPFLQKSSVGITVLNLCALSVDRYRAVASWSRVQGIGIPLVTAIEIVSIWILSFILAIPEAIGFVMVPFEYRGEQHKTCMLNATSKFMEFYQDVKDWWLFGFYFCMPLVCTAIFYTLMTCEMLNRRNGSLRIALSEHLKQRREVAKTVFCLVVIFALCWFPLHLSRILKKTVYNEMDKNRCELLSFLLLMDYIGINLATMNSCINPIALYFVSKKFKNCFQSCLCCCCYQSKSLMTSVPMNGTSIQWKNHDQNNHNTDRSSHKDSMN
Sequence of Activated CDC42 kinase 1 (Q07912 whole entry, looked up): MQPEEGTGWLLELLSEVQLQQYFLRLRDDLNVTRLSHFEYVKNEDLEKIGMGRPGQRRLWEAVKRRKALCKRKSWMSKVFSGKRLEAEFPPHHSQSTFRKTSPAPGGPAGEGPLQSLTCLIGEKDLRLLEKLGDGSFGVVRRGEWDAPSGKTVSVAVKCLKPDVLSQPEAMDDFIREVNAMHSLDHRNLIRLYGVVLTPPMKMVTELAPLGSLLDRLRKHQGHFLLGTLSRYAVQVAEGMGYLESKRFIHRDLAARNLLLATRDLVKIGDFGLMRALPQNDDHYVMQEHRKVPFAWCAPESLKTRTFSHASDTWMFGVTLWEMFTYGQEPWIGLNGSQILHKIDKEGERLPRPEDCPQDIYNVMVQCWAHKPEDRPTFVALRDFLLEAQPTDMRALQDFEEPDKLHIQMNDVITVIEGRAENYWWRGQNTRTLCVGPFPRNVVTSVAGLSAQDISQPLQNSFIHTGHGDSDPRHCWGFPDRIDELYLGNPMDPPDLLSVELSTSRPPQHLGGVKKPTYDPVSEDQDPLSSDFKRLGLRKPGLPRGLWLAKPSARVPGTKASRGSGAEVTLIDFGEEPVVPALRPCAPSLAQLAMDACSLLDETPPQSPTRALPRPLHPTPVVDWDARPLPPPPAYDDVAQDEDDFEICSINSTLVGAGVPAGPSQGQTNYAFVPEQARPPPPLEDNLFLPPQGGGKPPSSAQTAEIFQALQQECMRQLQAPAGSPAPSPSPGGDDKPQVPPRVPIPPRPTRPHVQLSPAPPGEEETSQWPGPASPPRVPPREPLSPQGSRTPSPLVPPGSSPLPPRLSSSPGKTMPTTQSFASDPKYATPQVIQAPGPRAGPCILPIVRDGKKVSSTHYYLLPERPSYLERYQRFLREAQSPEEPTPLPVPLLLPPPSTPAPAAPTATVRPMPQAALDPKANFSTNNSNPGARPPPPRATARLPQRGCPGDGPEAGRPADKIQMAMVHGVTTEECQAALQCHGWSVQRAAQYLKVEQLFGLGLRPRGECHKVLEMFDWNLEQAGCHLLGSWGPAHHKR

% of inhibition [1]: 19%
SMILES: Cc1ccc(-c2ccc3c(ccc4sc5c(c43)NC[C@@H](C)NC5=O)n2)cn1

SMILES: Cc1cc(C)cc([C@@H]2c3cc(C)ccc3NC(=O)CN2C(=O)c2ccc(Br)s2)c1
% of inhibition [2]: -24%

SMILES: COc1cc(Nc2nc(C)cc(-c3cnn4nc(OC)ccc34)n2)cc(C(F)(F)F)c1
% of control [3]: 73%

SMILES: C=CC(=O)Nc1cc(-n2c(=O)ccc3cnc4ccc(-c5ccc(NS(C)(=O)=O)cc5)cc4c32)ccc1C
% of control ([4]; at 1 µM): 100%
% of control ([4]; at 10 µM): 79%

% of inhibition [5]: 82%
SMILES: Cn1cc(Nc2nccc(N3CC4CCC(C3)N4C(=O)[C@@H]3CC3(F)F)n2)cn1

SMILES: Cc1cc([C@@H](C)Nc2ccccc2C(=O)O)c2nc(N3CCOCC3)cc(=O)n2c1 [AZD-6482]
% of control [6]: 99%
